According to the supplement of paper PMC10307832:

Legend:
Experiment in all cases: relative viability (nuclei count vs DMSO), 5 days (fraction); higher = more cells survive
Bleomycin + Crizotinib = compound: CC1=C(N=C(N=C1N)[C@H](CC(=O)N)NC[C@@H](C(=O)N)N)C(=O)N[C@@H]([C@H](C2=CN=CN2)OC3C(C(C(C(O3)CO)O)O)OC4C(C(C(C(O4)CO)O)OC(=O)N)O)C(=O)N[C@H](C)[C@H]([C@H](C)C(=O)N[C@@H]([C@@H](C)O)C(=O)NCCC5=NC(=CS5)C6=NC(=CS6)C(=O)NCCC[S+](C)C)O [Bleomycin] + C[C@@H](Oc1cc(-c2cnn(C3CCNCC3)c2)cnc1N)c1c(Cl)ccc(F)c1Cl [Crizotinib] (partner 1 µM); conditions: main component drawn
Method in brief: (§1)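 Each reported value is a median over duplicate plates. It expresses relative viability: treated-well nuclei count divided by vehicle-well nuclei count. Lung cancer cell lines in 1536-well plates were dosed by pin tool a day after seeding, alone with one drug or with a fixed anchor-drug dose plus five library-drug doses (not always all listed) in √10 steps, and nuclei were counted after 5 days.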

Etoposide + Palbociclib = compound: COc1cc([C@@H]2c3cc4c(cc3[C@@H](O[C@@H]3O[C@@H]5CO[C@@H](C)O[C@H]5[C@H](O)[C@H]3O)[C@H]3COC(=O)[C@H]23)OCO4)cc(OC)c1O [Etoposide] + CC(=O)c1c(C)c2cnc(Nc3ccc(N4CCNCC4)cn3)nc2n(C2CCCC2)c1=O [Palbociclib] (partner 0.5 µM)
Method in brief: as §1

Etoposide + Vorinostat = compound: COc1cc([C@@H]2c3cc4c(cc3[C@@H](O[C@@H]3O[C@@H]5CO[C@@H](C)O[C@H]5[C@H](O)[C@H]3O)[C@H]3COC(=O)[C@H]23)OCO4)cc(OC)c1O [Etoposide] + O=C(CCCCCCC(=O)Nc1ccccc1)NO [Vorinostat] (partner 1 µM)
Method in brief: as §1

Etoposide + Trametinib = compound: COc1cc([C@@H]2c3cc4c(cc3[C@@H](O[C@@H]3O[C@@H]5CO[C@@H](C)O[C@H]5[C@H](O)[C@H]3O)[C@H]3COC(=O)[C@H]23)OCO4)cc(OC)c1O [Etoposide] + CC(=O)Nc1cccc(-n2c(=O)n(C3CC3)c(=O)c3c(Nc4ccc(I)cc4F)n(C)c(=O)c(C)c32)c1 [Trametinib] (partner 0.02 µM)
Method in brief: as §1

**Q.** How did the relative viability (Bleomycin + Crizotinib; first compound 0.01 µM) turn out when UMC-11 was run?
**A.** 0.528

**Q.** And the relative viability (Bleomycin + Crizotinib; first compound 0.03162 µM)?
**A.** 0.571

**Q.** What about the relative viability (Bleomycin + Crizotinib; first compound 0.1 µM) of the same cell line?
**A.** 0.419

**Q.** And the relative viability (Bleomycin + Crizotinib; first compound 0.3162 µM)?
**A.** 0.326

**Q.** What about the relative viability (Bleomycin + Crizotinib; first compound 1 µM) of the same cell line?
**A.** 0.252

**Q.** And the relative viability (Etoposide + Palbociclib; first compound 0.01 µM)?
**A.** 0.327

**Q.** What about the relative viability (Etoposide + Palbociclib; first compound 0.03162 µM) of the same cell line?
**A.** 0.308

**Q.** What about the relative viability (Etoposide + Palbociclib; first compound 0.1 µM) of the same cell line?
**A.** 0.312

**Q.** And the relative viability (Etoposide + Palbociclib; first compound 0.3162 µM)?
**A.** 0.313

**Q.** What about the relative viability (Etoposide + Palbociclib; first compound 1 µM) of the same cell line?
**A.** 0.298

**Q.** And the relative viability (Etoposide + Vorinostat; first compound 0.01 µM)?
**A.** 0.373

**Q.** And the relative viability (Etoposide + Vorinostat; first compound 0.03162 µM)?
**A.** 0.376

**Q.** What about the relative viability (Etoposide + Vorinostat; first compound 0.1 µM) of the same cell line?
**A.** 0.323

**Q.** And the relative viability (Etoposide + Vorinostat; first compound 0.3162 µM)?
**A.** 0.228

**Q.** What about the relative viability (Etoposide + Vorinostat; first compound 1 µM) of the same cell line?
**A.** 0.199

**Q.** What about the relative viability (Etoposide + Trametinib; first compound 0.01 µM) of the same cell line?
**A.** 0.711

**Q.** What about the relative viability (Etoposide + Trametinib; first compound 0.03162 µM) of the same cell line?
**A.** 0.711

**Q.** And the relative viability (Etoposide + Trametinib; first compound 0.1 µM)?
**A.** 0.352

**Q.** What about the relative viability (Etoposide + Trametinib; first compound 0.3162 µM) of the same cell line?
**A.** 0.258

**Q.** And the relative viability (Etoposide + Trametinib; first compound 1 µM)?
**A.** 0.292
